Like-named read-outs stand apart in the source and are kept apart here.
Experiments:
Format in all cases: cell-based
T-type calcium channel [1] = target: T-type calcium channel (Homo sapiens, UniProt O95180); test: T-type channel blocking, FLIPR data (Table 6)
Description: (§1) Another method, high-throughput spectrophotometric assay, utilizes loading of the cell lines with a fluorescent dye sensitive to intracellular calcium concentration and subsequent examination of the effects of compounds on the ability of depolarization by potassium chloride or other means to alter intracellular calcium levels.

CAv1.2 [2] = target: T1, CAv1.2 (Homo sapiens, UniProt Q13936); test: L-type (CAv1.2) channel blocking, FLIPR data (Table 6)
Human Cav 2.2 channels = Human Cav 2.2 channels (Homo sapiens, UniProt Q00975); test: Fluorescent assay for CaV2.2 channels using potassium depolarization (VIPR/FLIPR); conditions: FLIPR data
Outline: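 Fluo-4 calcium fluorescence (480/535 nm) was recorded on VIPR or FLIPR after depolarization to 70 mM final potassium. Before this, cells were preincubated 30 min at 25 °C with compound in 4–30 mM potassium, so that state-dependent block could be assessed; the cells were HEK293 coexpressing Cav2.2, α2δ, β and Kir2.3.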

T-type calcium channel [3] = target: T-type calcium channel (Homo sapiens, UniProt O43497); test: T-type channel blocking, FLIPR data (Table 6); conditions: CAv3.1
Sequence of T-type calcium channel (Homo sapiens, UniProt O43497) (O43497 whole entry): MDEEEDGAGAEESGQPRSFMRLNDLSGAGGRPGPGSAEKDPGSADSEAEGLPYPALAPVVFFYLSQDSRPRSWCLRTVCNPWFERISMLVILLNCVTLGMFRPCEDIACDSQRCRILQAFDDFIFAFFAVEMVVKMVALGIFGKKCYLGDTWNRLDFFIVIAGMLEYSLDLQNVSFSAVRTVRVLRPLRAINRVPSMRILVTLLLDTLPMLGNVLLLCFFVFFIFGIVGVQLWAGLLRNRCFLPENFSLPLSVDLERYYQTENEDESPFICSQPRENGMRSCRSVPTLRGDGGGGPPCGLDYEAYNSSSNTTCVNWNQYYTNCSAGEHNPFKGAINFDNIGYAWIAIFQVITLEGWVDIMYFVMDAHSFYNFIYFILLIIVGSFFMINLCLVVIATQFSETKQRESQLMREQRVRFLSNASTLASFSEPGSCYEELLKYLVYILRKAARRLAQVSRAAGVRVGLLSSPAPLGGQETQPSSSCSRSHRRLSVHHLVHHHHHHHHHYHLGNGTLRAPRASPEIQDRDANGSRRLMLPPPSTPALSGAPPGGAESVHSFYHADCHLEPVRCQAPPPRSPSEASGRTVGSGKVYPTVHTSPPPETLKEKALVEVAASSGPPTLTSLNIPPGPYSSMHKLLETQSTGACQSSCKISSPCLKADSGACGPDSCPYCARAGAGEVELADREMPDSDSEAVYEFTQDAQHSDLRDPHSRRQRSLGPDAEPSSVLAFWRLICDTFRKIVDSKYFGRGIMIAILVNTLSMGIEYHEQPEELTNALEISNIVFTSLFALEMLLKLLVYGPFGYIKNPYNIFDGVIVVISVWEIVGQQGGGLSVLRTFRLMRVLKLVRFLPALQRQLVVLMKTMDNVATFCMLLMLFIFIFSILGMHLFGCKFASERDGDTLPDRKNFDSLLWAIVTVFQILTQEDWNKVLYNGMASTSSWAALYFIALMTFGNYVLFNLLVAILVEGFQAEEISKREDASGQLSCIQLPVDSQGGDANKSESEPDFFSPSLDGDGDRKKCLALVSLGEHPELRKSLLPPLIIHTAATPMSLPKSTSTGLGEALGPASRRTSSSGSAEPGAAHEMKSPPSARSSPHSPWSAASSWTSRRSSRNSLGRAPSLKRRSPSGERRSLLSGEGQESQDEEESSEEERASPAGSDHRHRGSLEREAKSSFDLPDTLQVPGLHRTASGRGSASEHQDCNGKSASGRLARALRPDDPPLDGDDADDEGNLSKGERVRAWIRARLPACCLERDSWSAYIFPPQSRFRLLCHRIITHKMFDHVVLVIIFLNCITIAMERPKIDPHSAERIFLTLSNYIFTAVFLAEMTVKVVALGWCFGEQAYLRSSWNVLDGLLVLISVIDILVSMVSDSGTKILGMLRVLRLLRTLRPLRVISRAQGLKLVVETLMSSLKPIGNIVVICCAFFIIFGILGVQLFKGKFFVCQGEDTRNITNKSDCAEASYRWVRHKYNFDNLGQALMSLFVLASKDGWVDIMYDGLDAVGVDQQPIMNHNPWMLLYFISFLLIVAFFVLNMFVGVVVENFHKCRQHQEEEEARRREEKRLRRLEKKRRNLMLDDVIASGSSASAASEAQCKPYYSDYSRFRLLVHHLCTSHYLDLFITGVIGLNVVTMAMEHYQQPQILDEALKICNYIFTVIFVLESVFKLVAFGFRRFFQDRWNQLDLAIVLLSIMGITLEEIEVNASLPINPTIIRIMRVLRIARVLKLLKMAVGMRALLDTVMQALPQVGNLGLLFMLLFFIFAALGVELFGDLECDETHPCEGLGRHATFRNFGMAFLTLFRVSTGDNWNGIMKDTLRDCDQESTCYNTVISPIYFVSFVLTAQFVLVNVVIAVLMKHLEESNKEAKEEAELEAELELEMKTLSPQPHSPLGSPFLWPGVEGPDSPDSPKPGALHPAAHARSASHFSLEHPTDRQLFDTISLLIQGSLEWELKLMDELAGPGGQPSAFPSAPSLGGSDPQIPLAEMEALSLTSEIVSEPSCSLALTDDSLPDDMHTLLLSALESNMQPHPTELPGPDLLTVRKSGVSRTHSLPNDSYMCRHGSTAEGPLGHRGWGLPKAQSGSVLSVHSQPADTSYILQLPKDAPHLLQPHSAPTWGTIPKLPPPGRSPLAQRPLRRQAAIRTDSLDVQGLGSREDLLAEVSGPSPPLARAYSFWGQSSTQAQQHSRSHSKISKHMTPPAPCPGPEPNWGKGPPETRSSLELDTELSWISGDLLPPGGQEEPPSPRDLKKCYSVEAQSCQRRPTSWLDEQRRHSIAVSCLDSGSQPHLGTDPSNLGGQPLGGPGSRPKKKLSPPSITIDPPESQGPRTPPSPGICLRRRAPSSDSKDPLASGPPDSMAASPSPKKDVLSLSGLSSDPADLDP
Description: as §1

CAv1.2 [4] = target: T1, CAv1.2; test: FLIPR data, CAv1.2 channel blocking (Table 6); conditions: for CAv1.2 IC50 Ratio closed/inact.: ratio closed/inactivated IC50
[5] = CAv3.2, inactivated state, read-out: CAv3.2 IC50 Inact.
[6] = closed state, read-out: CAv1.2 IC50 Closed
[7] = inactivated state, read-out: CAv1.2 IC50 Inact.
[8] = closed state, read-out: CAv2.2 IC50 Closed
[9] = inactivated state, read-out: CAv2.2 IC50 Inact.
[10] = CAv3.2, closed state, read-out: CAv3.2 IC50 Closed
[11] = CAv3.2, ratio closed/inactivated IC50

Sequence of T-type calcium channel (Homo sapiens, UniProt O95180) (O95180 whole entry): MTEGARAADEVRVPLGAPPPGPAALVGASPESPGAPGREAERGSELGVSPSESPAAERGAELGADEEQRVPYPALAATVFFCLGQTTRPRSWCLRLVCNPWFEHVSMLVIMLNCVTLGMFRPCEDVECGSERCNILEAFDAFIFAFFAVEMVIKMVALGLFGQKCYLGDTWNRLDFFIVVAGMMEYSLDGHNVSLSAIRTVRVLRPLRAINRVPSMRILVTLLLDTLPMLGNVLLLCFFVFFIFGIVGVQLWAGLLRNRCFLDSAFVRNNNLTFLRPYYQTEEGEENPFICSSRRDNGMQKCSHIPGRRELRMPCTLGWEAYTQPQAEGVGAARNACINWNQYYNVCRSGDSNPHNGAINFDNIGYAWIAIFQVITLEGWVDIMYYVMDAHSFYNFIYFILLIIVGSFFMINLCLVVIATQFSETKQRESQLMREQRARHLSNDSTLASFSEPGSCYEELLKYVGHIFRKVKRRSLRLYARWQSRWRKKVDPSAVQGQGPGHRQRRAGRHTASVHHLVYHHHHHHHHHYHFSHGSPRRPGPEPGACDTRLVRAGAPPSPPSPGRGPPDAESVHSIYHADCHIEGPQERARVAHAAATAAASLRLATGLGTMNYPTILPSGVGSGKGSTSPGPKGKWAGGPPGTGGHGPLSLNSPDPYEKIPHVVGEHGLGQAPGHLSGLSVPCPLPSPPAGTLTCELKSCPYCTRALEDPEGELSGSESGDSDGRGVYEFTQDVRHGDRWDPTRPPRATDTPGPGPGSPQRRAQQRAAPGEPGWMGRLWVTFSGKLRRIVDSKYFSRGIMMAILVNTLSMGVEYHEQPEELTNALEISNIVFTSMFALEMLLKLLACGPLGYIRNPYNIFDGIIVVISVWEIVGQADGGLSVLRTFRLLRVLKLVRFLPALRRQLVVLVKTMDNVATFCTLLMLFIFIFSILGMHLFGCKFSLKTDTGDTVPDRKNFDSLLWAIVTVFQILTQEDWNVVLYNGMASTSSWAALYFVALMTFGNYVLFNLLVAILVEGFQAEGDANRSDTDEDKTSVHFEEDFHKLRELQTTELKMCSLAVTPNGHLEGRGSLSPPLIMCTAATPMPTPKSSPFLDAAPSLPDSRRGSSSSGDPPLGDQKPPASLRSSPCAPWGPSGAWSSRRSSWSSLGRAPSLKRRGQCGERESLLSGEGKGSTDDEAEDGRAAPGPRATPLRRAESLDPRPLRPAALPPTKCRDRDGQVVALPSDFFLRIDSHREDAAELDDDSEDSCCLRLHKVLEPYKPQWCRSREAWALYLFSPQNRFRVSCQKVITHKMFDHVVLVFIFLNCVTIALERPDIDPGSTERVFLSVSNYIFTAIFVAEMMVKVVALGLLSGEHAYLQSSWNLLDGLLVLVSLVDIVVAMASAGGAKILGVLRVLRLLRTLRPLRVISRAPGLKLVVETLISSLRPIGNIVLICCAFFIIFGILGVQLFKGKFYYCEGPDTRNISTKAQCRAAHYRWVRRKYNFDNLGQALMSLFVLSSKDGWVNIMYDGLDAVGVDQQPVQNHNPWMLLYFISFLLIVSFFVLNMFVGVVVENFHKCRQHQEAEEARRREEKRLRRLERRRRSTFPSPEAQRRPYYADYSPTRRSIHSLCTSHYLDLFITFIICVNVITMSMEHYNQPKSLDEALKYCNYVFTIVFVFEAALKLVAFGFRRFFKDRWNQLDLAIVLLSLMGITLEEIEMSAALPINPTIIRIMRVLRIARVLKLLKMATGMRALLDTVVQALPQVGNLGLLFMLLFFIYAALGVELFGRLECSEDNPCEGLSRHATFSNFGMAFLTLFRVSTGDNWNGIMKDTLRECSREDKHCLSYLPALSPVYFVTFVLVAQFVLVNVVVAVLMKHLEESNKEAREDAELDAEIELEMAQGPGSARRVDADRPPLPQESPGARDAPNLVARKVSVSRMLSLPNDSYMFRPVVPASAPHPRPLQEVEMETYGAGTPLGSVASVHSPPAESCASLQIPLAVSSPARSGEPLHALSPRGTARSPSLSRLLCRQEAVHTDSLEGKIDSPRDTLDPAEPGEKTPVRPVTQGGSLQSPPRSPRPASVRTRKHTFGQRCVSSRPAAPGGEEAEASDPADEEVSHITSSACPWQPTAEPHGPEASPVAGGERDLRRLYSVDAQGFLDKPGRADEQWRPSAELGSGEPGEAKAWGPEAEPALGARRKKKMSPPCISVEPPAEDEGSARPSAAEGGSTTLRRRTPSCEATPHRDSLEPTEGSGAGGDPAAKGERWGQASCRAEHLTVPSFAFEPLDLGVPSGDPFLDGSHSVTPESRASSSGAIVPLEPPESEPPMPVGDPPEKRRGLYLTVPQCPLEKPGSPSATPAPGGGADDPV

SMILES	IC50 (T-type calcium channel [1]; [5])	IC50 (Human Cav 2.2 channels; [8])	IC50 (Human Cav 2.2 channels; [9])	CAv2.2 IC50 Ratio closed/inact. (Human Cav 2.2 channels; ratio closed/inact.)	IC50 (T-type calcium channel [1]; [10])	CAv3.2 IC50 Ratio closed/inact. (T-type calcium channel [1]; CAv3.2, ratio closed/inact.)	IC50 (T-type calcium channel [3])	CAv3.2 IC50 Ratio closed/inact. (T-type calcium channel [1]; [11])	CAv2.2 IC50 Ratio closed/inact. (Human Cav 2.2 channels; ratio closed/inactivated IC50)	IC50 (CAv1.2 [2]; [6])	IC50 (CAv1.2 [2]; [7])	CAv1.2 IC50 Ratio closed/inact. (CAv1.2 [2]; ratio closed/inact.)	IC50 (CAv1.2 [4]; [6])	IC50 (CAv1.2 [4]; [7])	CAv1.2 IC50 Ratio closed/inact. (CAv1.2 [4])
CC(C)(C[C@H]1C[C@@H](NC(=O)c2ccc(Cl)cc2S(C)(=O)=O)C1)S(=O)(=O)c1cccc(C(F)(F)F)c1 [Compound 731]	6.67 µM	5.38 µM	0.23 µM		6.36 µM		≥ 10 µM	1	23.4				≥ 10 µM	≥ 10 µM	
CC(C)([C@H]1C[C@H](NS(=O)(=O)c2ccc(Cl)c(F)c2)C1)S(=O)(=O)c1cccc(C(F)(F)F)c1 [Compound 665]	2.66 µM	7.26 µM	0.8 µM		3.03 µM		2.77 µM	1.1	9.1				8.94 µM	4.21 µM	2.1
CS(=O)(=O)c1cc(Cl)ccc1C(=O)NC[C@H]1C[C@H](S(=O)(=O)c2cccc(OC(F)(F)F)c2)C1 [Compound 692]	2.48 µM	7.75 µM	0.78 µM		7.92 µM		9.81 µM	3.2	9.9				≥ 10 µM	≥ 10 µM	
CC(C)([C@H]1C[C@@H](CNC(=O)c2ncc(C(F)(F)F)cc2S(C)(=O)=O)C1)S(=O)(=O)c1cccc(C(F)(F)F)c1 [Compound 690]		10 µM	0.45 µM		≥ 10 µM		≥ 10 µM		22.2				≥ 10 µM	≥ 10 µM	
CC(C)S(=O)(=O)c1cc(C(F)(F)F)cnc1C(=O)N[C@H]1C[C@H](CC(C)(C)S(=O)(=O)c2cccc(C(F)(F)F)c2)C1 [Compound 716]	6.84 µM	6.04 µM	0.22 µM		≥ 10 µM		≥ 10 µM	1.5	27.5				7.76 µM	6.54 µM	1.2
CC(C)(C1CC(CNC(=O)c2ccnc(C(F)(F)F)c2)C1)S(=O)(=O)c1cccc(C(F)(F)F)c1 (centres unmarked) [Compound 620]	1.39 µM	2.87 µM	0.39 µM		5.52 µM		8.71 µM	4	7.4				9.99 µM	0.67 µM	14.9
CC(C)([C@H]1C[C@H](NS(=O)(=O)c2ccc(F)c(C(F)(F)F)c2)C1)S(=O)(=O)c1cc(F)cc(C(F)(F)F)c1 [Compound 608]	2.58 µM	4.03 µM	1.1 µM		≥ 10 µM		4.92 µM	3.9	3.7				7.75 µM	2.45 µM	3.2
O=C(NC[C@H]1C[C@H](S(=O)(=O)c2cc(F)cc(C(F)(F)F)c2)C1)c1ccc(Cl)cn1 [Compound 702]	3.79 µM	3.95 µM	0.89 µM		7.5 µM		≥ 10 µM	2	4.4				9.86 µM	7.28 µM	1.4
CC(C)([C@H]1C[C@@H](NS(=O)(=O)c2ccc(C(F)(F)F)cc2Cl)C1)S(=O)(=O)c1cc(F)cc(C(F)(F)F)c1 [Compound 622]	4.48 µM	4.79 µM	0.68 µM		≥ 10 µM		4.86 µM	2.2	7				9.01 µM	1.94 µM	4.6
CC(C)(C[C@H]1C[C@H](NC(=O)c2ccc(OCC(F)(F)F)nc2)C1)S(=O)(=O)c1cccc(C(F)(F)F)c1 [Compound 724]	0.83 µM	0.98 µM	0.09 µM		2.24 µM		1.41 µM	2.7	10.9				5.23 µM	1.21 µM	4.3
CC(C)(C1CC(CNC(=O)c2cnc(C(F)(F)F)nc2)C1)S(=O)(=O)c1cccc(C(F)(F)F)c1 (centres unmarked) [Compound 616]	6.4 µM	4.81 µM	0.61 µM		≥ 10 µM		≥ 10 µM	1.6	7.9				≥ 10 µM	2.81 µM	3.6

More lines, in order of falling IC50 (Human Cav 2.2 channels; [8]), values ahead:

IC50 (T-type calcium channel [1]; [5])	IC50 (Human Cav 2.2 channels; [8])	IC50 (Human Cav 2.2 channels; [9])	CAv2.2 IC50 Ratio closed/inact. (Human Cav 2.2 channels; ratio closed/inact.)	IC50 (T-type calcium channel [1]; [10])	CAv3.2 IC50 Ratio closed/inact. (T-type calcium channel [1]; CAv3.2, ratio closed/inact.)	IC50 (T-type calcium channel [3])	CAv3.2 IC50 Ratio closed/inact. (T-type calcium channel [1]; [11])	CAv2.2 IC50 Ratio closed/inact. (Human Cav 2.2 channels; ratio closed/inactivated IC50)	SMILES	IC50 (CAv1.2 [2]; [6])	IC50 (CAv1.2 [2]; [7])	CAv1.2 IC50 Ratio closed/inact. (CAv1.2 [2]; ratio closed/inact.)	IC50 (CAv1.2 [4]; [6])	IC50 (CAv1.2 [4]; [7])	CAv1.2 IC50 Ratio closed/inact. (CAv1.2 [4])
10 µM	10 µM	≥ 10 µM	1						N[C@H]1CCCC[C@@H]1C(=O)NC[C@H]1C[C@H](S(=O)(=O)c2cccc(Cl)c2)C1 [Compound 779]	≥ 10 µM	≥ 10 µM				
10 µM	10 µM	2.29 µM	4.4	≥ 10 µM	1				CC(C)S(=O)(=O)c1cc(C(F)(F)F)cnc1C(=O)NC[C@H]1C[C@H](S(=O)(=O)c2cccc(Cl)c2)C1 [Compound 770]	≥ 10 µM	≥ 10 µM				
10 µM	10 µM	0.48 µM		≥ 10 µM		≥ 10 µM	1	20.8	CC(C)S(=O)(=O)c1cc(C(F)(F)F)cnc1C(=O)N[C@H]1C[C@@H](C(C)(C)S(=O)(=O)c2cc(F)cc(C(F)(F)F)c2)C1 [Compound 586]				≥ 10 µM	9.37 µM	1.1
10 µM	9.98 µM	4.32 µM	2.3	6.63 µM	0.7				O=C(NC[C@H]1C[C@H](S(=O)(=O)c2cccc(Cl)c2)C1)c1ccc(C(F)(F)F)cn1 [Compound 774]	≥ 10 µM	6.45 µM	1.6			
6.23 µM	8.63 µM	0.49 µM		7.76 µM		≥ 10 µM	1.2	17.6	CC(C)([C@H]1C[C@H](NC(=O)c2ccc(C(F)(F)F)nc2)C1)S(=O)(=O)c1cccc(C(F)(F)F)c1 [Compound 675]				≥ 10 µM	5.99 µM	1.7
2.92 µM	7.34 µM	0.79 µM		3.83 µM		2.95 µM	1.3	9.3	CC(C)([C@H]1C[C@H](NS(=O)(=O)c2ccc(C(F)(F)F)nc2)C1)S(=O)(=O)c1cccc(C(F)(F)F)c1 [Compound 668]				≥ 10 µM	3.73 µM	2.7
6.36 µM	5.47 µM	0.28 µM		5.73 µM		9.28 µM	0.9	19.5	CC(C)([C@H]1C[C@H](NC(=O)c2cncc(C(F)(F)F)c2)C1)S(=O)(=O)c1cccc(C(F)(F)F)c1 [Compound 671]				≥ 10 µM	7.82 µM	1.3
2.81 µM	3.09 µM	0.63 µM		9.61 µM		4.07 µM	3.4	4.9	CC(C)([C@H]1C[C@@H](NC(=O)c2ccnc(C(F)(F)F)n2)C1)S(=O)(=O)c1cccc(OC(F)(F)F)c1 [Compound 642]				≥ 10 µM	8.43 µM	1.2
3.2 µM	2.87 µM	0.49 µM		7.2 µM		≥ 10 µM	2.3	5.9	CC(C)(C1CC(CNC(=O)c2cc(C(F)(F)F)n[nH]2)C1)S(=O)(=O)c1cccc(C(F)(F)F)c1 (centres unmarked) [Compound 614]				8.03 µM	2.41 µM	3.3
	2.77 µM	0.26 µM		5.45 µM		5.53 µM		10.7	CC(C)([C@H]1C[C@@H](CNC(=O)c2ccnc(C(F)(F)F)n2)C1)S(=O)(=O)c1cccc(C(F)(F)F)c1 [Compound 683]				≥ 10 µM	6.11 µM	1.6
1.46 µM	0.69 µM	0.07 µM		4.55 µM		3.51 µM	3.1	9.9	CC(C)(C[C@H]1C[C@@H](NC(=O)c2ccc(C(F)(F)F)cn2)C1)S(=O)(=O)c1cccc(C(F)(F)F)c1 [Compound 735]				6.37 µM	3.71 µM	1.7

From US20120245137A1 (Zalicus Pharmaceuticals Ltd., priority 2009, published 2012)
